# Test results published in patent US7157495B2, “Hexahydrofuro[2,3-B]furan-3-YL-N-{3-[(1,3-benzodioxol-5-ylsulfonyl)(isobutyl)amino]-1-benzyl-2-hydroxypropyl}carbamate as retroviral protease inhibitor” (Tibotec Pharmaceuticals, Ltd., priority 1999, dated 2007).
# Where two headings read alike, the source gives them in different places.
# Key:
# [1] = Oral absorption in rats, serum concentration; type: in vivo; details: single oral dose 20 mg/kg in PEG400 by gavage, read-out: Compound concentration in serum
# Description: The oral absorption of compound 13 was then measured in rats to determine bioavailability. The compound was administered by gavage to rats, as a single dose of 20 mg/kg in PEG400. Animals were sacrificed at different time points after administration, whole blood was collected and serum prepared by standard methods. Concentration of the compound in serum was determined by titrating the anti-HIV activity present in the sample according to the procedure described above.
# [2] = test system: HIV-1 strain LAI; assay: Cellular anti-HIV assay in MT4 cells (MTT); type: cell-based; details: for IC50: read-out: IC50
# Description: (§1) HIV- or mock-infected MT4 cells were incubated for five days in the presence of various concentrations of the inhibitor. At the end of the incubation period, all HIV-infected cells have been killed by the replicating virus in the control cultures in the absence of any inhibitor. Cell viability is measured by measuring the concentration of MTT, a yellow, water soluble tetrazolium dye that is converted to a purple, water insoluble formazan in the mitochondria of living cells only. Upon solubilization of the resulting formazan crystals with isopropanol, the absorbance of the solution is monitored at 540 nm. The values correlate directly to the number of living cells remaining in the culture at the completion of the five day incubation. The inhibitory activity of the compound was monitored on the virus-infected cells and was expressed as IC50 and IC90. These values represent the amount of the compound required to protect 50% and 90%, respectively, of the cells from the cytopathogenic effect of the virus. The toxicity of the compound was measured on the mock-infected cells and was expressed as CC50, which represents the concentration of compound required to inhibit the growth of the cells by 50%. The select index (SI) (ratio CC50/IC50) is an indication of the selectivity of the anti-HIV activity of the inhibitor.
# [3] = test system: HIV; assay: Anti-HIV activity in the presence of human serum proteins (HSA or AAG); type: cell-based
# Description: as §1, with “These values represent the amount of the compound required to protect 50% and 90%, respectively, of the cells from the cytopathogenic effect of the virus. The toxicity of the compound was measured on the mock-infected cells and was expressed as CC50, which represents the concentration of compound required to inhibit the growth of the cells by 50%. The select index (SI) (ratio CC50/IC50) is an indication of the selectivity of the anti-HIV activity of the inhibitor.” left out
# Human serum proteins like albumin (HSA) or alpha-1 acid glycoprotein (AAG) are known to bind many drugs, resulting in a possible decrease in the effectiveness of those compounds. In order to determine whether compound 13 would be adversely effected by this binding, the anti-HIV activity of the compound was measured in the presence of physiological concentrations of HSA or AAG, thus evaluating the effect of the binding of the inhibitor to those proteins.
# [4] = test system: HIV strain r13027; assay: Antiviral spectrum, protease inhibitor resistant strain; type: cell-based; details: strain r13027; L10M/I, K20R, M36I, L63P, A71V, G73S, V77I, I84V, L90M
# Description: as §1
# (§2) Because of the increasing emergence of drug resistant HIV strains, compound 13 and compound 14 were tested for its potency against HIV strains harbouring several mutations. These mutations are associated with resistance to protease inhibitors and result in viruses that show various degrees of phenotypic cross-resistance to five of the currently commercially available drugs (Saquinavir, Ritonavir, Nelfinavir, Indinavir and Amprenavir).
# [5] = test system: HIV strain r13030; assay: as above; type: cell-based; details: strain r13030; L10V/I, M36I, I54V, L63P, A71V, V82T, L90M
# Description: as §1, §2
# [6] = test system: HIV strain r13022; assay: as above; type: cell-based; details: strain r13022; K20R, M36I, M46I/M, 154V, L63P, A71V/I, V82T, L90M
# Description: as §1, §2
# [7] = test system: HIV strain r13034; assay: as above; type: cell-based; details: strain r13034; L10I, M36I, I54V, L63P, A71V, I84V
# Description: as §1, §2
# [8] = test system: HIV strain r13031; assay: as above; type: cell-based; details: strain r13031; G48V, I54V, V77I, V82A, L90M/L
# Description: as §1, §2
# [9] = test system: HIV strain r13029; assay: as above; type: cell-based; details: strain r13029; L10I/L, M36I, M46L, L63P, A71V, I84V, N88D, L90M
# Description: as §1, §2
# [10] = test system: HIV strain r13035; assay: as above; type: cell-based; details: strain r13035; D30N, L63P, V77I, N88D
# Description: as §1, §2
# [11] = test system: HIV strain r13037; assay: as above; type: cell-based; details: strain r13037; L10I, M46I, I54V, L63P, A71T, V77I, V82A, L90M
# Description: as §1, §2
# [12] = test system: HIV strain r13023; assay: as above; type: cell-based; details: strain r13023; L10I, M36I/M, I54V/I, L63P, A71V, G73S, I84V, L90M
# Description: as §1, §2
# [13] = test system: HIV strain r13025; assay: as above; type: cell-based; details: strain r13025; L10I, M46I, L63P, A71V, I84V
# Description: as §1, §2
# [14] = test system: HIV strain r13033; assay: as above; type: cell-based; details: strain r13033; L10I, M46L, I54V, L63P, A71V, V82A, L90M
# Description: as §1, §2
# [15] = test system: HIV strain r13024; assay: as above; type: cell-based; details: strain r13024; L10I, M36I, L63P, A71V, G73S, I84V, L90M
# Description: as §1, §2
# [16] = test system: HIV strain r13036; assay: as above; type: cell-based; details: strain r13036; L10I, L63P, A71V, G73S, L90M
# Description: as §1, §2
# [17] = test system: HIV strain r13021; assay: as above; type: cell-based; details: strain r13021; L10I, K20R, L24I, M36I, I54V, L63P, A71V, V82T, I84V
# Description: as §1, §2
compound,measurement,setting,value
"CC(C)CN(CC(O)C(Cc1ccccc1)NC(=O)OC1COC2OCCC12)S(=O)(=O)c1ccc2c(c1)OCO2 (stereo not shown) [Compound 13, hexahydrofuro[2,3-b]furan-3-yl-N-{3-[(1,3-benzodioxol-5-ylsufonyl)(isobutyl)amino]-1-benzyl-2-hydroxypropyl}carbamate]",concentration at 0 min,"[1]; rat, serum, po, 20 mg/kg, 0 minutes after administration",0 nM
same,concentration at 60 min,"[1]; rat, serum, po, 20 mg/kg, 60 minutes after administration",1000 nM
same,concentration at 180 min,"[1]; rat, serum, po, 20 mg/kg, 180 minutes after administration",687 nM
same,concentration at 300 min,"[1]; rat, serum, po, 20 mg/kg, 300 minutes after administration",216 nM
same,concentration at 300 min,[1]; 60 minutes after administration,985.8 nM
same,SI (ratio CC50/IC50),[2]; CC50 on mock-infected MT4 cells / IC50 on HIV-1 LAI,"13,900"
same,IC90,"[2]; Human immunodeficiency virus 1, 120 h, HIV-1 strain LAI, MT4 cells, five days, median value of 12 determinations",2.4 nM
same,IC50,"[2]; Human immunodeficiency virus 1, MT4, 120 h, HIV-1 strain LAI, MT4 cells, five days",1.1 nM
same,IC50,[2]; strain LAI,1.4 nM
same,decrease of the potency,[3]; AAG at a concentration of 2 mg/ml,two to four
same,effect on the potency,[3]; HSA at a concentration of 45 mg/ml,no effect
same,IC50,[4],7.4 nM
same,IC50,[5],0.4 nM
same,IC50,[6],1.7 nM
same,IC50,[7],8 nM
same,IC50,[8],0.5 nM
same,IC50,[9],7 nM
same,IC50,[10],0.3 nM
same,IC50,[11],0.3 nM
same,IC50,[12],6.8 nM
same,IC50,[13],45.4 nM
same,IC50,[14],1.7 nM
same,IC50,[15],8.1 nM
same,IC50,[16],5.4 nM
same,IC50,[17],5.5 nM
